According to patent US9738634B2, “Heterocyclic amide compound and herbicide” (SYNGENTA PARTICIPATIONS AG, priority 2013, dated 2017):

Key:
Format in all cases: in vivo
barnyard grass [1] = test: Test Example 1: weedkilling efficacy, preemergent weed treatment in the submerged state; A: barnyard grass; conditions: treatment dosage 252 g/ha
In short: (§1)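 Pre-emergence application onto floodwater (4 cm, alluvial soil) on the day of sowing, dose expressed as g/ha from diluted emulsion formulation. Weeds sown with 2.5-leaf transplanted rice as crop; plants held at 25–30 °C in greenhouse and scored against assessment criteria after 3 weeks.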

bulrush [2] = test: Test Example 1: weedkilling efficacy, preemergent weed treatment in the submerged state; B: bulrush; conditions: treatment dosage 252 g/ha
In short: as §1

oval-leafed pondweed [3] = test: Test Example 1: weedkilling efficacy, preemergent weed treatment in the submerged state; C: oval-leafed pondweed; conditions: treatment dosage 252 g/ha
In short: as §1

transplanted rice = test: Test Example 1: preemergent weed treatment in the submerged state, effect on crop; a: transplanted rice; conditions: treatment dosage 252 g/ha
In short: as §1

barnyard grass [4] = test: Test Example 2: weedkilling efficacy, growth period weed treatment in the submerged state; A: barnyard grass; conditions: treatment dosage 252 g/ha
In short: (§2)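 Weeds treated at the 1-2 leaf stage by application of diluted emulsion onto floodwater (4 cm depth, alluvial soil) at specified g/ha. Grown in greenhouse at 25 to 30° C; herbicidal effect rated three weeks after treatment.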

bulrush [5] = test: Test Example 2: weedkilling efficacy, growth period weed treatment in the submerged state; B: bulrush; conditions: treatment dosage 252 g/ha
In short: as §2

oval-leafed pondweed [6] = test: Test Example 2: weedkilling efficacy, growth period weed treatment in the submerged state; C: oval-leafed pondweed; conditions: treatment dosage 252 g/ha
In short: as §2

crabgrass [7] = test: Test Example 3: weedkilling efficacy through soil treatment; D: crabgrass; conditions: treatment dosage 315 g/ha
In short: (§3)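 Crop and weed responses were judged three weeks after a uniform surface spray of the water-diluted emulsion at the given g/ha rate. Seeds sat beneath about 1.5 cm of sterilized diluvial soil, and boxes stood in a greenhouse at 25 to 30° C.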

green foxtail [8] = test: Test Example 3: weedkilling efficacy through soil treatment; E: green foxtail; conditions: treatment dosage 315 g/ha
In short: as §3

black-grass [9] = test: Test Example 3: weedkilling efficacy through soil treatment; H: black-grass; conditions: treatment dosage 315 g/ha
In short: as §3

Italian ryegrass [10] = test: Test Example 3: weedkilling efficacy through soil treatment; I: Italian ryegrass; conditions: treatment dosage 315 g/ha
In short: as §3

Indian mallow [11] = test: Test Example 3: weedkilling efficacy through soil treatment; K: Indian mallow; conditions: treatment dosage 315 g/ha
In short: as §3

redroot pigweed [12] = test: Test Example 3: weedkilling efficacy through soil treatment; L: redroot pigweed; conditions: treatment dosage 315 g/ha
In short: as §3

fig-leafed goosefoot [13] = test: Test Example 3: weedkilling efficacy through soil treatment; M: fig-leafed goosefoot; conditions: treatment dosage 315 g/ha
In short: as §3

chickweed [14] = test: Test Example 3: weedkilling efficacy through soil treatment; N: chickweed; conditions: treatment dosage 315 g/ha
In short: as §3

birds-eye speedwell [15] = test: Test Example 3: weedkilling efficacy through soil treatment; p: birds-eye speedwell; conditions: treatment dosage 315 g/ha
In short: as §3

directly sown rice [16] = test: Test Example 3: soil treatment, effect on crop; b: directly sown rice; conditions: treatment dosage 315 g/ha
In short: as §3

corn [17] = test: Test Example 3: soil treatment, effect on crop; c: corn; conditions: treatment dosage 315 g/ha
In short: as §3

soybean [18] = test: Test Example 3: soil treatment, effect on crop; d: soybean; conditions: treatment dosage 315 g/ha
In short: as §3

beet [19] = test: Test Example 3: soil treatment, effect on crop; f: beet; conditions: treatment dosage 315 g/ha
In short: as §3

crabgrass [20] = test: Test Example 4: weedkilling efficacy by foliar treatment; D: crabgrass; conditions: treatment dosage 315 g/ha
Protocol: (§4) Testing of Weedkilling Efficacy by Foliar Treatment
(§5) Sterilized diluvial soil was introduced into 21 cm long, 13 cm wide, 7 cm deep plastic boxes, and seeds of crabgrass, green foxtail, barnyard grass, wild oat, black-grass, Italian ryegrass, common wind-grass, Indian mallow, redroot pigweed, fig-leafed goosefoot, chickweed, catchweed, birds-eye speedwell, corn, soybean, rice, wheat, beet and rapeseed were each spot-sown, and covered with about 1.5 cm of soil, then the plants were grown in a greenhouse at 25 to 30° C.
(§6) After they had grown for 14 days, emulsions of compounds of the present invention prepared according to compounding example 2 were diluted with water to give the specified dosages, and applied uniformly onto the stem and leaf parts with a small sprayer. 3 weeks after the pesticide treatment the effect on each type of plant was investigated on the basis of the assessment criteria of test example 1.
(§7) A: barnyard grass, B: bulrush, C: oval-leafed pondweed, D: crabgrass, E: green foxtail, F: barnyard grass, G: wild oat, H: black-grass, I: Italian ryegrass, J: common wind-grass, K: Indian mallow, L: redroot pigweed, M: fig-leafed goosefoot, N: chickweed, O: catchweed, p: birds-eye speedwell, a: transplanted rice, b: directly sown rice, c: corn, d: soybean, e: wheat, f: beet, g: rapeseed
(§8) Further, pesticide dosage (g/ha) indicates the concentration regulated such that treatment was with only the stated number of grams (g), when calculated per hectare (ha).

green foxtail [21] = test: Test Example 4: weedkilling efficacy by foliar treatment; E: green foxtail; conditions: treatment dosage 315 g/ha
Protocol: as §4, §5, §6, §7, §8

black-grass [22] = test: Test Example 4: weedkilling efficacy by foliar treatment; H: black-grass; conditions: treatment dosage 315 g/ha
Protocol: as §4, §5, §6, §7, §8

Italian ryegrass [23] = test: Test Example 4: weedkilling efficacy by foliar treatment; I: Italian ryegrass; conditions: treatment dosage 315 g/ha
Protocol: as §4, §5, §6, §7, §8

Indian mallow [24] = test: Test Example 4: weedkilling efficacy by foliar treatment; K: Indian mallow; conditions: treatment dosage 315 g/ha
Protocol: as §4, §5, §6, §7, §8

redroot pigweed [25] = test: Test Example 4: weedkilling efficacy by foliar treatment; L: redroot pigweed; conditions: treatment dosage 315 g/ha
Protocol: as §4, §5, §6, §7, §8

fig-leafed goosefoot [26] = test: Test Example 4: weedkilling efficacy by foliar treatment; M: fig-leafed goosefoot; conditions: treatment dosage 315 g/ha
Protocol: as §4, §5, §6, §7, §8

chickweed [27] = test: Test Example 4: weedkilling efficacy by foliar treatment; N: chickweed; conditions: treatment dosage 315 g/ha
Protocol: as §4, §5, §6, §7, §8

catchweed = test: Test Example 4: weedkilling efficacy by foliar treatment; O: catchweed; conditions: treatment dosage 315 g/ha
Protocol: as §4, §5, §6, §7, §8

birds-eye speedwell [28] = test: Test Example 4: weedkilling efficacy by foliar treatment; p: birds-eye speedwell; conditions: treatment dosage 315 g/ha
Protocol: as §4, §5, §6, §7, §8

directly sown rice [29] = test: Test Example 4: foliar treatment, effect on crop; b: directly sown rice; conditions: treatment dosage 315 g/ha
Protocol: as §4, §5, §6, §7, §8

corn [30] = test: Test Example 4: foliar treatment, effect on crop; c: corn; conditions: treatment dosage 315 g/ha
Protocol: as §4, §5, §6, §7, §8

soybean [31] = test: Test Example 4: foliar treatment, effect on crop; d: soybean; conditions: treatment dosage 315 g/ha
Protocol: as §4, §5, §6, §7, §8

wheat = test: Test Example 4: foliar treatment, effect on crop; e: wheat; conditions: treatment dosage 315 g/ha
Protocol: as §4, §5, §6, §7, §8

beet [32] = test: Test Example 4: foliar treatment, effect on crop; f: beet; conditions: treatment dosage 315 g/ha
Protocol: as §4, §5, §6, §7, §8

In the case of `CC1=C(c2cccs2)C(=O)N(C(C)(C)C(=O)Nc2cccc(Cl)n2)CO1` [B-2-01], the “A (barnyard grass) weedkilling efficacy grade” value (barnyard grass [1]) is reported as 5 (weed kill ratio 90% or more, (practically complete withering)), the “B (bulrush) weedkilling efficacy grade” value (bulrush [2]) is reported as 5 (weed kill ratio 90% or more, (practically complete withering)) and the “C (oval-leafed pondweed) weedkilling efficacy grade” value (oval-leafed pondweed [3]) is reported as 5 (weed kill ratio 90% or more, (practically complete withering)). For the same compound, the “a (transplanted rice) effect on crop grade” value (transplanted rice) was 2 (weed kill ratio 20% or more, less than 40%), the “A (barnyard grass) weedkilling efficacy grade” value (barnyard grass [4]) was 5 (weed kill ratio 90% or more, (practically complete withering)) and the “B (bulrush) weedkilling efficacy grade” value (bulrush [5]) was 5 (weed kill ratio 90% or more, (practically complete withering)). The “C (oval-leafed pondweed) weedkilling efficacy grade” value (oval-leafed pondweed [6]) was 5 (weed kill ratio 90% or more, (practically complete withering)), the “D (crabgrass) weedkilling efficacy grade” value (crabgrass [7]) was 5 (weed kill ratio 90% or more, (practically complete withering)) and the “E (green foxtail) weedkilling efficacy grade” value (green foxtail [8]) was 5 (weed kill ratio 90% or more, (practically complete withering)). The “H (black-grass) weedkilling efficacy grade” value (black-grass [9]) was 5 (weed kill ratio 90% or more, (practically complete withering)), the “I (Italian ryegrass) weedkilling efficacy grade” value (Italian ryegrass [10]) was 5 (weed kill ratio 90% or more, (practically complete withering)) and the “K (Indian mallow) weedkilling efficacy grade” value (Indian mallow [11]) was 3 (weed kill ratio 40% or more, less than 70%). The “L (redroot pigweed) weedkilling efficacy grade” value (redroot pigweed [12]) was 4 (weed kill ratio 70% or more, less than 90%), the “M (fig-leafed goosefoot) weedkilling efficacy grade” value (fig-leafed goosefoot [13]) was 4 (weed kill ratio 70% or more, less than 90%) and the “N (chickweed) weedkilling efficacy grade” value (chickweed [14]) was 3 (weed kill ratio 40% or more, less than 70%). The “P (birds-eye speedwell) weedkilling efficacy grade” value (birds-eye speedwell [15]) was 5 (weed kill ratio 90% or more, (practically complete withering)), the “b (directly sown rice) effect on crop grade” value (directly sown rice [16]) was 5 (weed kill ratio 90% or more, (practically complete withering)) and the “c (corn) effect on crop grade” value (corn [17]) was 0 (weed kill ratio 5% or less (practically no effect)). The “d (soybean) effect on crop grade” value (soybean [18]) was 0 (weed kill ratio 5% or less (practically no effect)), the “f (beet) effect on crop grade” value (beet [19]) was 4 (weed kill ratio 70% or more, less than 90%) and the “D (crabgrass) weedkilling efficacy grade” value (crabgrass [20]) was 5 (weed kill ratio 90% or more, (practically complete withering)). For the same compound, the “E (green foxtail) weedkilling efficacy grade” value (green foxtail [21]) was 5 (weed kill ratio 90% or more, (practically complete withering)), the “H (black-grass) weedkilling efficacy grade” value (black-grass [22]) was 5 (weed kill ratio 90% or more, (practically complete withering)) and the “I (Italian ryegrass) weedkilling efficacy grade” value (Italian ryegrass [23]) was 5 (weed kill ratio 90% or more, (practically complete withering)). For the same compound, the “K (Indian mallow) weedkilling efficacy grade” value (Indian mallow [24]) was 3 (weed kill ratio 40% or more, less than 70%), the “L (redroot pigweed) weedkilling efficacy grade” value (redroot pigweed [25]) was 5 (weed kill ratio 90% or more, (practically complete withering)) and the “M (fig-leafed goosefoot) weedkilling efficacy grade” value (fig-leafed goosefoot [26]) was 4 (weed kill ratio 70% or more, less than 90%). The “N (chickweed) weedkilling efficacy grade” value (chickweed [27]) was 4 (weed kill ratio 70% or more, less than 90%), the “O (catchweed) weedkilling efficacy grade” value (catchweed) was 4 (weed kill ratio 70% or more, less than 90%) and the “P (birds-eye speedwell) weedkilling efficacy grade” value (birds-eye speedwell [28]) was 0 (weed kill ratio 5% or less (practically no effect)). For the same compound, the “b (directly sown rice) effect on crop grade” value (directly sown rice [29]) was 5 (weed kill ratio 90% or more, (practically complete withering)), the “c (corn) effect on crop grade” value (corn [30]) was 0 (weed kill ratio 5% or less (practically no effect)) and the “d (soybean) effect on crop grade” value (soybean [31]) was 5 (weed kill ratio 90% or more, (practically complete withering)). For the same compound, the “e (wheat) effect on crop grade” value (wheat) was 1 (weed kill ratio 5% or more, less than 20%) and the “f (beet) effect on crop grade” value (beet [32]) was 4 (weed kill ratio 70% or more, less than 90%).
